From patent publication US20230114728A1 (Venatorx Pharmaceuticals, Inc., priority 2019, published 2023) come the findings set out here.

The target of assay [1] is A. baumannii PBP1a (Acinetobacter baumannii, UniProt A0ABX6CK30). The assay can be described thus: Bocillin-FL fluorescence polarization competition binding assay, A. baumannii PBP1a. The settings on record: fluorescence polarization competition binding assay using Bocillin-FL; column 1; read-out: A. baumannii PBP1a Potency. The text has this:
(§1) Example I: Experimental Method for Penicillin-Binding Protein Binding Assays with Bocillin-FL Via Fluorescence Polarization
(§2) To determine the ability of boronic acid-based test PBP inhibitors to bind Penicillin Binding Proteins (PBPs), Bocillin-FL (fluorescently-labeled penicillin V; ThermoFisher Scientific) was used in a fluorescence polarization (FP) competition binding assay to assess inhibitor binding to PBP2, PBP3 or PBP4 from Escherichia coli (K12), PBP3 from Pseudomonas aeruginosa (PA01), PBP1a, PBP2 and PBP3 from Acinetobacter baumannii (ATCC 19606), and PBP2 from Neiserria gonorrheae (FA19). PBPs were cloned and purified as described previously (E. coli PBPs, King, D. T, et al., ACS Infectious Diseases 2015, 1, 175-184; P. aeruginosa PBP3, Han et. al., PNAS 2010, 107 (51), 22002-22007; A. baumannii PBPs, Penwell et. al., Antimicrob. Agents Chemother. 2015, 59 (3), 1680-1689; N. gonorrhoeae PBP2, Singh et. al., J Biol. Chem. 2019, 294 (38), 14020-14032). To establish assay conditions for competition binding, enzyme titration/saturation binding experiments were initially performed. Bocillin-FL was prepared at 0.2 μM in a buffer comprised of 50 mM Hepes (pH 8.0), 300 mM NaCl and 5% (v/v) glycerol for reactions with E. coli, P. aeruginosa and N. gonorrhoeae PBPs, and 25 mM Tris (pH 8.0), 200 mM NaCl and 10% (v/v) glycerol and 0.005% (v/v) Tween 20 for reactions with A. baumannii PBPs. Saturation binding was performed by mixing 40 μl of PBP solutions ranging in concentrations from 0-24 μM with 40 μl of the 0.2 μM Bocillin-FL solution, in individual wells of a black 384-well microplate. FP was measured immediately upon mixing (Excitation, 490 nm; Emission, 520 nm; g-factor, 0.96), using a Cytation3 (BioTek) microplate reader and measured continuously for up to 120 minutes. […] The competition binding assay (80 μl final volume) was validated using beta-lactams and PBPs at final concentrations of: 1.5 μM, E. coli PBP3; 0.75 μM, P. aeruginosa PBP3; 1 μM A. baumannii PBP1a; 2.5 μM A. baumannii PBP2; 0.2 μM A. baumannii PBP3; and […] N. gonorrhoeae PBP2. Bocillin-FL was at 0.1 μM (0.05 μM with A. baumannii PBP1a) and beta-lactam concentrations ranged from 0-1000 μM. […] Bocillin-FL was added and the FP immediately measured for up to 60 minutes (90 minutes for E. coli PBP2). […] The beta-lactam potency was reported as the concentration of beta-lactam required to reduce the amount of PBP bound-Bocillin-FL by 50% (EC50). […] Binding assays for boronic acid PBP inhibitors were performed in an identical fashion for the respective PBPs

In assay [2] the target is T1, A. baumannii PBP2 (Acinetobacter baumannii, UniProt D0C8Z9).
T1 construct: made in house
T1 sequence (D0C8Z9 1-672): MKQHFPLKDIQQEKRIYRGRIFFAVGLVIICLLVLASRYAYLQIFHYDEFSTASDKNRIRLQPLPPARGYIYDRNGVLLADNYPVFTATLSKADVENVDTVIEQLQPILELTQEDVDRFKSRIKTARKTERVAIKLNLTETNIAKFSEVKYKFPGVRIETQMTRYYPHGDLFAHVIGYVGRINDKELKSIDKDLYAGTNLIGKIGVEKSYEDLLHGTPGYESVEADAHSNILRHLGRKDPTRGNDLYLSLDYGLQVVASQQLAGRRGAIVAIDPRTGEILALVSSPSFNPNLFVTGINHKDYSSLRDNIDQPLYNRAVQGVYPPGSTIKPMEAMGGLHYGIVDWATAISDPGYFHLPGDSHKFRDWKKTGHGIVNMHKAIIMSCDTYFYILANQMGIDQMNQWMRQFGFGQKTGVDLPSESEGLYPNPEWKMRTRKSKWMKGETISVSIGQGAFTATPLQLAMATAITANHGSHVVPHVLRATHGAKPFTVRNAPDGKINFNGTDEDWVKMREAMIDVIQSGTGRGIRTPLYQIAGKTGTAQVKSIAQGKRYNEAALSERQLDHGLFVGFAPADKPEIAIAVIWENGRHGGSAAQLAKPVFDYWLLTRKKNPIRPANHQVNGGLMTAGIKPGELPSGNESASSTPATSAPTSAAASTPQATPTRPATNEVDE
The assay can be described thus: Bocillin-FL fluorescence polarization competition binding assay, A. baumannii PBP2. As to conditions: fluorescence polarization competition binding assay using Bocillin-FL; read-out: A. baumannii PBP2 Potency.
Excerpt: as §1, §2
A general note: Polarisation of emitted light reports the rotation of a fluorescent probe.

Assay [3] has as its system P. aeruginosa PAO1. As to the kind of experiment: Broth microdilution MIC in CAMHB. As to conditions: Pseudomonas aeruginosa, MHB, read-out: Minimum Inhibitory Concentration, P. aeruginosa PAO1. The class given is cell-based. Here is the method:
To determine the ability of test compounds to inhibit the growth of bacterial strains, classic cell based broth microdilution minimum inhibitory concentration (MIC) assays were employed. MIC assays are performed according to CLSI methods except where otherwise noted (CLSI, 2018 and CLSI, 2019). The reference type strain E. coli ATCC 25922; the wild-type parent strain E. coli AG100; the hyper-permeable E. coli 901C and E. coli D22; and the E. coli AG100A strain lacking the acrAB efflux pump encoding genes were used to determine the ability of the PBP inhibitors to penetrate the outer membrane of gram-negative bacteria and inhibit bacterial growth. […] The P. aeruginosa ATCC 27853 and A. baumannii ATCC 19606, along with the hyper-permeable P. aeruginosa ATCC 35151 and an engineered efflux pump-compromised strain of P. aeruginosa (ΔmexAB-oprM) were used to determine the ability of PBP inhibitors to penetrate the outer membrane of P. aeruginosa and A. baumannii and assess antibacterial activity against these important gram-negative organisms.
Briefly, cryo-preserved bacterial cultures of challenge strains are streaked for isolation on appropriate agar medium, in this case cation-adjusted Mueller Hinton agar. Following incubation to allow growth of the colonies, plates are sealed with parafilm and stored refrigerated for up to two weeks. For preparation of assay inoculum and to ensure low variability, at least 5 colonies are picked from the agar plates with an inoculating loop and aseptically transferred to a culture tube containing 3 mL of cation-adjusted Mueller Hinton broth (CAMHB). The broth culture is grown for 3-5 hours at 37° C. with shaking at 200 rpm. Meanwhile, 2-fold serial dilutions of test compounds are conducted in a 96-well plate with a final volume of 75 μL per well at 2-fold the final desired concentration. After the dilution plates are set up the growing cultures are then diluted in a cuvette containing CAMHB and the optical density is measured at 600 nm. The inoculum is diluted such that 75 μL of this culture in CAMHB results in a starting bacterial concentration of 2-8×10^5 CFU/mL when added to the dilution plates. The plates are incubated for 16-20 hours for Enterobacteriaceae and Pseudomonas and 20-24 hours for Acinetobacter at 37° C. The MIC values are read visually as the lowest concentration well with no bacterial growth.
(In general: In broth dilution the organism is exposed to a series of concentrations in liquid medium.)

Where only a bound is given, the exact number is not on record here.

Sequence of A. baumannii PBP1a (A0ABX6CK30 entry or part of it): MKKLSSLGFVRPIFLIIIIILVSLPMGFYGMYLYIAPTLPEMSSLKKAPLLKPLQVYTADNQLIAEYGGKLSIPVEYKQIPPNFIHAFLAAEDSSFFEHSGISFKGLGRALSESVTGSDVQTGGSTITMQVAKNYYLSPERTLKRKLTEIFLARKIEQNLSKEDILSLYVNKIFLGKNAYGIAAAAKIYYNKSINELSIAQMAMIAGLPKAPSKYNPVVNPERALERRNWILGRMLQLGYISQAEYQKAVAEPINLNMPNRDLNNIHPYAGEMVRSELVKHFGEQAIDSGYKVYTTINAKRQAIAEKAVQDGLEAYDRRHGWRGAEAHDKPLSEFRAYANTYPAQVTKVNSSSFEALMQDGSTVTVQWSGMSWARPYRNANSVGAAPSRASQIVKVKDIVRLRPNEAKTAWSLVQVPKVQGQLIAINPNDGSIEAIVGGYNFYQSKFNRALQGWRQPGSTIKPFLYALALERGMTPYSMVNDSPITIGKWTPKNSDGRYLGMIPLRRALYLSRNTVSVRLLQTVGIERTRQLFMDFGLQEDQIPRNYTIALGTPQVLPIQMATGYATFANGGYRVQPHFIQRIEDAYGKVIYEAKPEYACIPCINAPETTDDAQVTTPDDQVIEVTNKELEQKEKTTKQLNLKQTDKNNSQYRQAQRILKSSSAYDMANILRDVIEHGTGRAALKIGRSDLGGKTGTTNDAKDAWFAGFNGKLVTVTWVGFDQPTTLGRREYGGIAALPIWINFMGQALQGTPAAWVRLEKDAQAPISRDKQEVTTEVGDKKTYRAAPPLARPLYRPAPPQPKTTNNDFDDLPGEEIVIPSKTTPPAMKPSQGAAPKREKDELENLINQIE

In the case of `NCCN1CCN(C(=O)N[C@@H](C(=O)N[C@H]2Cc3ccc(F)c(C(=O)O)c3OB2O)c2c(F)cc(O)c(O)c2Cl)C(=O)C1=O` (single isomer, unassigned) [Example 26], the EC50 in assay [1] and in assay [2] was over 100 µM in each case.
Regarding `NCCCN1CCN(C(=O)N[C@@H](C(=O)N[C@H]2Cc3ccc(F)c(C(=O)O)c3OB2O)c2c(F)cc(O)c(O)c2Cl)C(=O)C1=O` (single isomer, unassigned) [Example 27], the EC50 in assay [1] and in assay [2] was over 100 µM each time.
On to `O=C(O)c1c(F)ccc2c1OB(O)[C@@H](NC(=O)[C@H](NC(=O)N1CCNC1=O)c1c(F)cc(O)c(O)c1Cl)C2` (single isomer, unassigned) [Example 34], for which the values for the EC50 in assay [1] and in assay [2] were over 100 µM and 30 to 100 µM, respectively.
As for `NCCN1CCN(C(=O)N[C@@H](C(=O)N[C@H]2Cc3ccc(F)c(C(=O)O)c3OB2O)c2c(F)cc(O)c(O)c2F)C(=O)C1=O` (single isomer, unassigned) [Example 40], the EC50 in assay [1] is over 100 µM; in assay [2] it was 30 to 100 µM.
Consider `CS(=O)(=O)N1CCN(C(=O)NC(C(=O)N[C@H]2Cc3ccc(F)c(C(=O)O)c3OB2O)c2ccc(O)c(O)c2Cl)C1=O` (stereo partly drawn) [Example 23, (3R)-3-(2-(2-chloro-3,4-dihydroxyphenyl)-2-(3-(methylsulfonyl)-2-oxoimidazolidine-1-carboxamido)acetamido)-7-fluoro-2-hydroxy-3,4-dihydro-2H-benzo[e][1,2]oxaborinine-8-carboxylic acid], for which the EC50 in assay [1] and in assay [2] was over 100 µM in each case.
In the case of `CCN1CCN(C(=O)NC(C(=O)N[C@H]2Cc3ccc(SCc4ccc(O)cc4)c(C(=O)O)c3OB2O)c2csc(N)n2)C(=O)C1=O` (stereo partly drawn) [Example 55, (3R)-3-(2-(2-aminothiazol-4-yl)-2-(4-ethyl-2,3-dioxopiperazine-1-carboxamido)acetamido)-2-hydroxy-7-((4-hydroxybenzyl)thio)-3,4-dihydro-2H-benzo[e][1,2]oxaborinine-8-carboxylic acid], the MIC in assay [3] was over 128 µg/mL.
Same read-out and setting: to `CCN1CCN(C(=O)NC(C(=O)N[C@H]2Cc3ccc(C=O)c(C(=O)O)c3OB2O)c2csc(N)n2)C(=O)C1=O` (stereo partly drawn) [Example 57, (3R)-3-(2-(2-aminothiazol-4-yl)-2-(4-ethyl-2,3-dioxopiperazine-1-carboxamido)acetamido)-7-formyl-2-hydroxy-3,4-dihydro-2H-benzo[e][1,2]oxaborinine-8-carboxylic acid] belongs over 128 µg/mL; to `CCN1CCN(C(=O)NC(C(=O)N[C@H]2Cc3ccc(CO)c(C(=O)O)c3OB2O)c2csc(N)n2)C(O)C1=O` (stereo partly drawn) [Example 58, (3R)-3-(2-(2-aminothiazol-4-yl)-2-(4-ethyl-2-hydroxy-3-oxopiperazine-1-carboxamido)acetamido)-2-hydroxy-7-(hydroxymethyl)-3,4-dihydro-2H-benzo[el][1,2]oxaborinine-8-carboxylic acid], over 128 µg/mL; to `CCN1CCN(C(=O)NC(C(=O)N[C@H]2Cc3ccc(O[C@@H]4CN[C@H](C(=O)N(C)C)C4)c(C(=O)O)c3OB2O)c2ccccc2)C(=O)C1=O` (stereo partly drawn) [Example 59, (3R)-7-(((3S,5S)-5-(dimethylcarbamoyl)pyrrolidin-3-yl)oxy)-3-(2-(4-ethyl-2,3-dioxopiperazine-1-carboxamido)-2-phenylacetamido)-2-hydroxy-3,4-dihydro-2H-benzo[e][1,2]oxaborinine-8-carboxylic acid], over 128 µg/mL.
As for `CCN1CCN(C(=O)NC(C(=O)N[C@H]2Cc3ccc(OCCN)c(C(=O)O)c3OB2O)c2ccccc2)C(=O)C1=O` (stereo partly drawn) [Example 60, (3R)-7-(2-aminoethoxy)-3-(2-(4-ethyl-2,3-dioxopiperazine-1-carboxamido)-2-phenylacetamido)-2-hydroxy-3,4-dihydro-2H-benzo[e][1,2]oxaborinine-8-carboxylic acid], the MIC in assay [3] was over 128 µg/mL.
Take `CCN1CCN(C(=O)NC(C(=O)N[C@H]2Cc3cccc(C(=O)O)c3OB2O)c2ccc(O)c(NC(=O)c3ccc(O)c(O)c3Cl)c2)C(=O)C1=O` (stereo partly drawn) [Example 74, (3R)-3-(2-(3-(2-chloro-3,4-dihydroxybenzamido)-4-hydroxyphenyl)-2-(4-ethyl-2,3-dioxopiperazine-1-carboxamido)acetamido)-2-hydroxy-3,4-dihydro-2H-benzo[e][1,2]oxaborinine-8-carboxylic acid]: the EC50 in assay [1] is 30 to 100 µM; in assay [2], over 100 µM.
